# Key:
# Assay in all cases: cells
# HuCCT-1 = type: functional, cell-based, HuCCT1; conditions: Homo sapiens;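 further: growth inhibition of HuCCT-1 cells, read out by a cell viability assay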
# Description: SANGER: Inhibition of human HuCCT1 cell growth in a cell viability assay.
# CaR-1 = type: functional, cell-based; conditions: Homo sapiens;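 further: growth inhibition of human CaR-1 cancer cells, read out with a cell viability assay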
# Description: SANGER: Inhibition of human CaR-1 cell growth in a cell viability assay.
# MOLT-13 = type: functional, cell-based; conditions: Homo sapiens;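 further: IC50 for suppression of MOLT-13 cell growth, read out with a cell viability assay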
# Description: SANGER: Inhibition of human MOLT-13 cell growth in a cell viability assay.
# Detroit 562 = type: functional, cell-based; conditions: Homo sapiens;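 further: growth inhibition of human Detroit 562 cells, read out by a cell viability assay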
# Description: SANGER: Inhibition of human Detroit562 cell growth in a cell viability assay.
# GAMG = type: functional, cell-based; conditions: Homo sapiens;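 further: cell growth inhibition measured by a viability assay in the GAMG human cell line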
# Description: SANGER: Inhibition of human GAMG cell growth in a cell viability assay.
# H4 = type: functional, cell-based; conditions: Homo sapiens
# Description: SANGER: Inhibition of human H4 cell growth in a cell viability assay.
# JEG-3 = type: functional, cell-based; conditions: Homo sapiens;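 further: growth inhibition of human JEG-3 cells, read out with a cell viability assay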
# Description: SANGER: Inhibition of human JEG-3 cell growth in a cell viability assay.
# CAL-120 = type: functional, cell-based; conditions: Homo sapiens;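 further: cell growth inhibition, read out as cell viability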
# Description: SANGER: Inhibition of human CAL-120 cell growth in a cell viability assay.
# HGC-27 = type: functional, cell-based; conditions: Homo sapiens;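 further: growth inhibition of human HGC-27 cells, read out in a cell viability assay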
# Description: SANGER: Inhibition of human HGC-27 cell growth in a cell viability assay.
# KYSE-510 = type: functional, cell-based; conditions: Homo sapiens;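 further: cell viability readout used to measure how strongly growth of the cell line is suppressed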
# Description: SANGER: Inhibition of human KYSE-510 cell growth in a cell viability assay.
# DoTc2-4510 = type: functional, cell-based; conditions: Homo sapiens
# HCC1937 = type: functional, cell-based; conditions: Homo sapiens;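 further: growth inhibition measured with a cell viability read-out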
# Description: SANGER: Inhibition of human HCC1937 cell growth in a cell viability assay.
# PANC-08-13 = type: functional, cell-based; conditions: Homo sapiens;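 further: cell growth inhibition, measured with a cell viability assay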
# Description: SANGER: Inhibition of human PANC-08-13 cell growth in a cell viability assay.
# UMC-11 = type: functional, cell-based; conditions: Homo sapiens;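 further: growth inhibition of UMC-11 cells, read out with a cell viability assay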
# Description: SANGER: Inhibition of human UMC-11 cell growth in a cell viability assay.
# HT1197 = type: functional, cell-based, HT-1197; conditions: Homo sapiens
# Description: SANGER: Inhibition of human HT-1197 cell growth in a cell viability assay.
# HuP-T4 = type: functional, cell-based; conditions: Homo sapiens;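 further: cell viability assay measuring how much HuP-T4 cell growth is inhibited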
# Description: SANGER: Inhibition of human HuP-T4 cell growth in a cell viability assay.
# NCI-H2405 = type: functional, cell-based; conditions: Homo sapiens;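 further: growth inhibition of the human cell line, read out with a cell viability assay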
# Description: SANGER: Inhibition of human NCI-H2405 cell growth in a cell viability assay.
# KYSE-140 = type: functional, cell-based; conditions: Homo sapiens;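 further: cell viability assay measuring growth inhibition in human KYSE-140 cells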
# Description: SANGER: Inhibition of human KYSE-140 cell growth in a cell viability assay.
# BPH-1 = type: functional, cell-based; conditions: Homo sapiens;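 further: cell viability assay measuring growth inhibition of human BPH-1 cells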
# Description: SANGER: Inhibition of human BPH-1 cell growth in a cell viability assay.
# PFSK-1 = type: functional, cell-based; conditions: Homo sapiens;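 further: cell viability assay measuring how strongly compounds suppress growth of human PFSK-1 cells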
# Description: SANGER: Inhibition of human PFSK-1 cell growth in a cell viability assay.
# 639-V = type: functional, cell-based; conditions: Homo sapiens;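 further: growth inhibition of 639-V cells, read out with a cell viability assay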
# Description: SANGER: Inhibition of human 639-V cell growth in a cell viability assay.
# NCI-H727 = type: functional, cell-based; conditions: Homo sapiens;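 further: growth inhibition of human NCI-H727 cells, read out with a cell viability assay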
# Description: SANGER: Inhibition of human NCI-H727 cell growth in a cell viability assay.
# LN-405 = type: functional, cell-based; conditions: Homo sapiens
# Description: SANGER: Inhibition of human LN-405 cell growth in a cell viability assay.
# A673 = type: functional, cell-based; conditions: Homo sapiens;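 further: growth inhibition of human A673 cells, read out through a cell viability assay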
# Description: SANGER: Inhibition of human A673 cell growth in a cell viability assay.
# NCI-H2170 = type: functional, cell-based; conditions: Homo sapiens;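 further: cell viability assay measuring growth inhibition of human NCI-H2170 cancer cells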
# Description: SANGER: Inhibition of human NCI-H2170 cell growth in a cell viability assay.
# RPMI-2650 = type: functional, cell-based; conditions: Homo sapiens
# Description: SANGER: Inhibition of human RPMI-2650 cell growth in a cell viability assay.
# COLO-680N = type: functional, cell-based; conditions: Homo sapiens;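 further: cell viability assay used to measure inhibition of COLO-680N cell growth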
# Description: SANGER: Inhibition of human COLO-680N cell growth in a cell viability assay.
# T47D = type: functional, cell-based; conditions: Homo sapiens;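 further: growth inhibition of human T47D cells, measured with a cell viability assay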
# Description: SANGER: Inhibition of human T47D cell growth in a cell viability assay.
# HLE = type: functional, cell-based; conditions: Homo sapiens;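 further: growth inhibition of human HLE cells, read out by a cell viability assay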
# Description: SANGER: Inhibition of human HLE cell growth in a cell viability assay.
# NUGC-3 = type: functional, cell-based; conditions: Homo sapiens;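 further: growth inhibition of human NUGC-3 cells, read out with a cell viability assay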
# Description: SANGER: Inhibition of human NUGC-3 cell growth in a cell viability assay.
# HSC-3 = type: functional, cell-based; conditions: Homo sapiens
# Description: SANGER: Inhibition of human HSC-3 cell growth in a cell viability assay.
# NCI-H2122 = type: functional, cell-based; conditions: Homo sapiens;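 further: growth inhibition of the cells, read out with a cell viability assay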
# Description: SANGER: Inhibition of human NCI-H2122 cell growth in a cell viability assay.
# SW948 = type: functional, cell-based; conditions: Homo sapiens;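 further: growth inhibition of SW948 cells, read out with a cell viability assay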
# Description: SANGER: Inhibition of human SW948 cell growth in a cell viability assay.
# AU565 = type: functional, cell-based; conditions: Homo sapiens;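 further: cell viability assay measuring growth inhibition of human AU565 cells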
# Description: SANGER: Inhibition of human AU565 cell growth in a cell viability assay.
# GCT = type: functional, cell-based; conditions: Homo sapiens;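 further: GCT cell line proliferation inhibition, read out with a cell viability assay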
# Description: SANGER: Inhibition of human GCT cell growth in a cell viability assay.
# UMUC3 = type: functional, cell-based; conditions: Homo sapiens;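 further: growth inhibition of human UM-UC-3 cells, read out with a cell viability assay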
# Description: SANGER: Inhibition of human UM-UC-3 cell growth in a cell viability assay.
# COLO-678 = type: functional, cell-based; conditions: Homo sapiens
# Description: SANGER: Inhibition of human COLO-678 cell growth in a cell viability assay.
# NB14 = type: functional, cell-based, Homo sapiens; conditions: Homo sapiens, NB14;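 further: growth inhibition of NB14 cells measured with a cell viability assay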
# Description: SANGER: Inhibition of human NB14 cell growth in a cell viability assay.
# SF-295 = type: functional, cell-based; conditions: Homo sapiens;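 further: growth inhibition of SF-295 cells, read out with a cell viability assay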
# Description: SANGER: Inhibition of human SF295 cell growth in a cell viability assay.
# KMOE-2 = type: functional, cell-based, Homo sapiens; conditions: Homo sapiens, KMOE-2;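 further: growth inhibition of human KMOE-2 cells, read out with a cell viability assay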
# Description: SANGER: Inhibition of human KMOE-2 cell growth in a cell viability assay.
SMILES,IC50 (HuCCT-1) [µM],IC50 (CaR-1) [µM],IC50 (MOLT-13) [µM],IC50 (Detroit 562) [µM],IC50 (GAMG) [µM],IC50 (H4) [µM],IC50 (JEG-3) [µM],IC50 (CAL-120) [µM],IC50 (HGC-27) [µM],IC50 (KYSE-510) [µM],IC50 (DoTc2-4510) [µM],IC50 (HCC1937) [µM],IC50 (PANC-08-13) [µM],IC50 (UMC-11) [µM],IC50 (HT1197) [µM],IC50 (HuP-T4) [µM],IC50 (NCI-H2405) [µM],IC50 (KYSE-140) [µM],IC50 (BPH-1) [µM],IC50 (PFSK-1) [µM],further results
O=C1NC(=O)c2c1c(-c1ccccc1Cl)cc1[nH]c3ccc(O)cc3c21,> 2,> 2,> 2,> 2,> 2,0.953,> 2,> 2,> 2,> 2,> 2,> 2,> 2,> 2,> 2,> 2,> 2,> 2,1.07,> 2,IC50 (639-V): > 2 µM; IC50 (NCI-H727): > 2 µM; IC50 (LN-405): > 2 µM; IC50 (A673): > 2 µM; IC50 (NCI-H2170): > 2 µM; IC50 (RPMI-2650): > 2 µM; IC50 (COLO-680N): > 2 µM; IC50 (T47D): > 2 µM; IC50 (HLE): > 2 µM; IC50 (NUGC-3): > 2 µM; IC50 (HSC-3): 1.18 µM; IC50 (NCI-H2122): > 2 µM; IC50 (SW948): > 2 µM; IC50 (AU565): > 2 µM; IC50 (GCT): > 2 µM; IC50 (UMUC3): > 2 µM; IC50 (COLO-678): > 2 µM; IC50 (NB14): > 2 µM
NC(=O)Nc1cc(-c2cccc(F)c2)sc1C(=O)N[C@H]1CCCNC1 [AZD-7762],0.708,1.87,0.463,0.333,0.386,0.221,> 2,> 2,0.491,1.58,0.782,0.706,0.661,1.77,> 2,0.469,> 2,0.13,> 2,0.411,IC50 (SF-295): 0.298 µM; IC50 (639-V): 1.17 µM; IC50 (NCI-H727): 0.698 µM; IC50 (LN-405): 0.877 µM; IC50 (A673): 0.865 µM; IC50 (NCI-H2170): 1.52 µM; IC50 (KMOE-2): 1.11 µM; IC50 (RPMI-2650): > 2 µM; IC50 (COLO-680N): > 2 µM; IC50 (T47D): > 2 µM; IC50 (HLE): > 2 µM; IC50 (NUGC-3): > 2 µM; IC50 (HSC-3): 0.486 µM; IC50 (NCI-H2122): 0.123 µM; IC50 (SW948): > 2 µM; IC50 (AU565): 0.824 µM; IC50 (GCT): 0.649 µM; IC50 (UMUC3): 0.903 µM; IC50 (COLO-678): > 2 µM; IC50 (NB14): 0.0614 µM
Cc1ccc(-n2nc(C(C)(C)C)cc2NC(=O)Nc2ccc(OCCN3CCOCC3)c3ccccc23)cc1 [DORAMAPIMOD],> 10,> 10,> 10,> 10,> 10,> 10,> 10,> 10,> 10,> 10,> 10,> 10,> 10,> 10,> 10,> 10,> 10,> 10,> 10,> 10,IC50 (SF-295): > 10 µM; IC50 (639-V): > 10 µM; IC50 (NCI-H727): > 10 µM; IC50 (LN-405): > 10 µM; IC50 (A673): > 10 µM; IC50 (NCI-H2170): > 10 µM; IC50 (RPMI-2650): > 10 µM; IC50 (COLO-680N): > 10 µM; IC50 (T47D): > 10 µM; IC50 (HLE): > 10 µM; IC50 (NUGC-3): > 10 µM; IC50 (HSC-3): > 10 µM; IC50 (NCI-H2122): > 10 µM; IC50 (SW948): > 10 µM; IC50 (AU565): > 10 µM; IC50 (GCT): > 10 µM; IC50 (UMUC3): > 10 µM; IC50 (COLO-678): > 10 µM; IC50 (NB14): > 10 µM
